This note sets out measurements from PubChem BioAssay (NCI).

Several values for one entry are separate records, joined by “and”; a condition that tells them apart may be missing. Identical values can stand only once.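 Exposure lasted 48 hours, with cells grown in 96-well plates and compounds tested at five concentrations. The concentration for 50% growth inhibition is given as GI50. The concentration for full growth arrest is given as TGI.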

The first assay relates to RXF 393 renal. In words: DTP human tumour cell line panel, 48 h.
One may read the TGI as the concentration at which net growth stops. Higher therefore signals less potent growth arrest. In turn, `Cn1cc(NC(=O)c2cc(NC(=O)CCCCCCCCCCC(=O)Nc3cc(C(=O)Nc4cc(C(=O)NCCC(=N)N)n(C)c4)n(C)c3)cn2C)cc1C(=O)NCCC(=N)N` gave a TGI of 77.5 µM.
The term GI50 denotes the concentration that inhibits growth by half. Regarding `C1COCCN1.C1COCCN1.N.N.[Cl-].[Pt+2]`, the GI50 was more than 100 µM and the TGI was more than 100 µM.
As for `Cc1ccccc1C(C#N)C(=O)C(=O)Nc1nc([N+](=O)[O-])cs1` (stereo not drawn), the TGI was more than 100 µM.
On to `COC(=O)C(c1[nH]nc2ccccc12)C(C(=O)OC)c1[nH]nc2ccccc12` (stereo not drawn), for which the TGI came out at 66.3 µM.
For the compound `C#CCNC(=O)NC(CCCNC(=O)OCc1ccccc1)C(=O)OCc1ccccc1` (stereo not drawn), the TGI came out at 95.2 µM.
For the compound `COc1ccc2cc1Oc1ccc(cc1)C[C@H]1c3cc(c(OC)cc3CCN1C)Oc1c(OC)c(OC)cc3c1[C@H](C2)N(C)CC3`, the GI50 is 1.97 µM; the TGI is 12.1 µM and 6.61 µM.
`O=c1[nH]c2ccccc2cc1C(Cl)=C(Cl)Cl` had a TGI of more than 100 µM.
Still for that read-out and setting: as for `O=[N+]([O-])[C@@H]1C2C=CC(C2)[C@H]1Cl` (stereo partly drawn), the figure is more than 100 µM; as for `COC(=O)C(C#N)=C1c2ccccc2Oc2ccccc21`, more than 100 µM; as for `N#CC1(c2nc3ccccc3o2)C(=O)C(=O)N(C2C3CC4CC(C3)CC2C4)C(=O)C1=O` (stereo not drawn), more than 100 µM.
For the compound `CCOC(=O)C1(CC)CCCCC(=O)N1` (stereo not drawn), the total growth inhibition concentration (TGI) is more than 100 µM.
In turn, `C=CC1=CSNN1` registered a TGI of more than 100 µM.
In turn, `O=C(C#Cc1c[nH]c(=O)[nH]c1=O)c1ccccc1Cl` returned a TGI of 14.7 µM.
`CC(=O)OC1=C2CC3(C)OC(=O)CC(C)(C)C3=CC=C2C=C(C(C)C)C1=O` (stereo not drawn) registered a TGI of 0.347 µM.
Compound `CCCCCCCCCCCCCCCC(=O)NCC(COP(=O)([O-])OCC[N+](C)(C)C)OCC` (stereo not drawn) returned a TGI of 5.3 µM.
On to `COC(=O)C1OC(O[C@H]2CCC3(C)C(CCC4(C)C3CC=C3C5CC(C)(C)CCC5(C(=O)O)CC[C@]34C)C2(C)C)C(O)C(OC2OC(CO)C(O)C(O)C2O)C1O` (stereo partly drawn), for which the GI50 is 11.3 µM and the TGI was more than 33.3 µM.
The compound `O=C1NC2(CCCC2)C(=O)C12CCCC2` returned a TGI of more than 100 µM.
Regarding `O=C1CCCN(c2ccccc2)N1`, the TGI is more than 100 µM.
The same measure, in the same setting: for `CN(C)/C(=N/C(=S)Nc1ccccc1)SCc1ccccc1` the value was more than 100 µM; for `CCOC(=O)C1=C(C)Nc2ccccc2S1`, more than 100 µM.
Still for that read-out and setting: for `CCOC(=O)CC1=Nc2ccccc2SC1` the value was more than 100 µM; for `C=CCSC[C@H](NC(=O)COc1ccccc1)C(=O)NC(C(=O)OCc1ccc([N+](=O)[O-])cc1)=C(C)C`, more than 100 µM.

The next assay deals with HCT-15 colon. Briefly: DTP human tumour cell line panel, 48 h.
With `C[C@@H]1CC[C@H]2C(COCC3=C(C(F)(F)F)O[C@@H]4O[C@@]5(C)CC[C@H]6[C@H](C)CC[C@@H]3[C@@]46OO5)=C(C(F)(F)F)O[C@@H]3O[C@@]4(C)CC[C@@H]1[C@]32OO4`, the GI50 was less than 0.01 µM and the TGI was more than 100 µM.
As to `CCOc1ccc(NC(=O)CC2Sc3ccccc3NC2=O)cc1` (stereo not drawn), the TGI was more than 100 µM.
Same read-out and setting: for `Cn1cc(NC(=O)c2cc(NC(=O)CCCCCCCCCCC(=O)Nc3cc(C(=O)Nc4cc(C(=O)NCCC(=N)N)n(C)c4)n(C)c3)cn2C)cc1C(=O)NCCC(=N)N` the value was more than 100 µM.
Turning to `C1COCCN1.C1COCCN1.N.N.[Cl-].[Pt+2]`, the GI50 is more than 100 µM and the TGI was more than 100 µM.
For `CNC(=O)c1ccccc1CC1(O)c2ccccc2Oc2ccccc21`, the GI50 is 12.7 µM and the TGI is more than 100 µM.
`Cc1ccccc1C(C#N)C(=O)C(=O)Nc1nc([N+](=O)[O-])cs1` (stereo not drawn) registered a TGI of more than 100 µM.
For `COC(=O)C(c1[nH]nc2ccccc12)C(C(=O)OC)c1[nH]nc2ccccc12` (stereo not drawn), the TGI was more than 100 µM.
`C#CCNC(=O)NC(CCCNC(=O)OCc1ccccc1)C(=O)OCc1ccccc1` (stereo not drawn): the TGI was more than 100 µM.
Turning to `COc1ccc2cc1Oc1ccc(cc1)C[C@H]1c3cc(c(OC)cc3CCN1C)Oc1c(OC)c(OC)cc3c1[C@H](C2)N(C)CC3`, the GI50 is 5.99 µM; the concentration for total growth inhibition (TGI) is 16.5 µM and 18.5 µM.
In turn, `O=[N+]([O-])[C@@H]1C2C=CC(C2)[C@H]1Cl` (stereo partly drawn) had a TGI of more than 100 µM.
Take `COC(=O)C(C#N)=C1c2ccccc2Oc2ccccc21`: the TGI is more than 100 µM.
`O=C(c1cccs1)c1c(C(F)(F)F)n([O-])c2ccccc2[n+]1=O`: the GI50 was 0.432 µM and the TGI was determined as 1.1 µM.
In turn, `N#CC1(c2nc3ccccc3o2)C(=O)C(=O)N(C2C3CC4CC(C3)CC2C4)C(=O)C1=O` (stereo not drawn) gave a TGI of more than 100 µM.
For `CCOC(=O)C1(CC)CCCCC(=O)N1` (stereo not drawn), the TGI is more than 100 µM.
Turning to `C=CC1=CSNN1`, the TGI is more than 100 µM.
`CSc1nc(SC)c2c(CN=[N+]=[N-])c(Br)n(Cc3ccccc3)c2n1` had a TGI of more than 100 µM.
Same read-out and setting: for `O=C(C#Cc1c[nH]c(=O)[nH]c1=O)c1ccccc1Cl` the value was 28.7 µM; for `CC(=O)OC1=C2CC3(C)OC(=O)CC(C)(C)C3=CC=C2C=C(C(C)C)C1=O` (stereo not drawn), 0.392 µM; for `CCCCCCCCCCCCCCCC(=O)NCC(COP(=O)([O-])OCC[N+](C)(C)C)OCC` (stereo not drawn), 19.3 µM.
As for `COC(=O)C1OC(O[C@H]2CCC3(C)C(CCC4(C)C3CC=C3C5CC(C)(C)CCC5(C(=O)O)CC[C@]34C)C2(C)C)C(O)C(OC2OC(CO)C(O)C(O)C2O)C1O` (stereo partly drawn), the GI50 was 6.57 µM and the TGI amounted to 13.2 µM.
Consider `O=C1NC2(CCCC2)C(=O)C12CCCC2`, for which the TGI was more than 100 µM.
`O=C1CCCN(c2ccccc2)N1` came in with a TGI of more than 100 µM.
`CN(C)/C(=N/C(=S)Nc1ccccc1)SCc1ccccc1` returned a TGI of more than 100 µM.
`CCOC(=O)C1=C(C)Nc2ccccc2S1`: the TGI was more than 100 µM.
Take `CCOC(=O)CC1=Nc2ccccc2SC1`: the TGI was more than 100 µM.
With `C=CCSC[C@H](NC(=O)COc1ccccc1)C(=O)NC(C(=O)OCc1ccc([N+](=O)[O-])cc1)=C(C)C`, the TGI was more than 100 µM.

In another assay the test system is HS 578T breast. In words: DTP human tumour cell line panel, 48 h.
Take `C[C@@H]1CC[C@H]2C(COCC3=C(C(F)(F)F)O[C@@H]4O[C@@]5(C)CC[C@H]6[C@H](C)CC[C@@H]3[C@@]46OO5)=C(C(F)(F)F)O[C@@H]3O[C@@]4(C)CC[C@@H]1[C@]32OO4`: the GI50 is 0.152 µM and the total growth inhibition concentration (TGI) was more than 100 µM.
In the case of `CNC(=O)c1ccccc1CC1(O)c2ccccc2Oc2ccccc21`, the GI50 was 16.6 µM and the TGI stood at 57.1 µM.
`COc1ccc2cc1Oc1ccc(cc1)C[C@H]1c3cc(c(OC)cc3CCN1C)Oc1c(OC)c(OC)cc3c1[C@H](C2)N(C)CC3`: the GI50 was 13.1 µM; the TGI is 19.1 µM and 28.2 µM and > 100 µM.
